Non-standard residues stand in square brackets, D forms with d. Residues, ends and D or L forms follow the SMILES beside them. hArg = N=C(N)NCCCC[C@H](N)C(=O)O; Ac5c = NC1(C(=O)O)CCCC1; Aib = CC(C)(N)C(=O)O
Target: T1, hP1R (Homo sapiens, UniProt Q03431)
T1 construct: expressed in transfected cells; host or cells: COS-7, transient transfection (FuGENE 6)
T1 sequence (Q03431 27-593): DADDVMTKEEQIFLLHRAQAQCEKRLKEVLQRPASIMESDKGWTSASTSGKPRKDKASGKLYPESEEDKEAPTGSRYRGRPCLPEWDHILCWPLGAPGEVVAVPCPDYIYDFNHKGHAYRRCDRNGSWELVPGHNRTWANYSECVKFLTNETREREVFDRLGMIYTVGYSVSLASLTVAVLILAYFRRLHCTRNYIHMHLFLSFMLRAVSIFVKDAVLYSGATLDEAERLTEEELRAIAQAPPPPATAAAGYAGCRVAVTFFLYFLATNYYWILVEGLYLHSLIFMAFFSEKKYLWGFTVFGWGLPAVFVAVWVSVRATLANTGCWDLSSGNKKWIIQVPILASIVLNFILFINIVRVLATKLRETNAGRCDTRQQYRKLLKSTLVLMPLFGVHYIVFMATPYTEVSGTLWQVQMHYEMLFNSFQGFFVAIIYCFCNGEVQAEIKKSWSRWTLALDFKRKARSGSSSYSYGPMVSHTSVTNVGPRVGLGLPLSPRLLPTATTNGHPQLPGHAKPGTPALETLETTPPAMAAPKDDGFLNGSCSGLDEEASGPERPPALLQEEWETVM
Assay: Stimulation of inositol phosphate production / phospholipase C in COS-7 cells
Format: cell-based
Excerpt: Cell Culture. The cell line HKRK-B28 (Takasu, H., et al., J. Bone Miner. Res. 14:11-20 (1999)) was derived from the porcine kidney cell line, LLC-PK1 by stable transfection with plasmid DNA encoding a recombinant P1R chimera comprised of the opposum P1R from the N-terminus to the mid region of TM3 and the rat P1R from the mid region of TM3 to the C-terminus. The surface density of the P1R in these cells is ˜280,000 receptors per cell. The clonal cell line LdelNt-2 was derived from LLC-PK, cells via stable transfection with a plasmid encoding P1R-delNt, a recombinant human PTH-1 receptor construct in which most of the amino-terminal extracellular domain is deleted. These cells, as well as COS-7 cells and SaOS-2-B10 cells, were cultured at […] in T-75 flasks ([…]) in Dulbecco's modified Eagle's medium (DMEM) supplemented with fetal bovine serum (10%), penicillin G (20 units/ml), streptomycin sulfate (20 μg/ml) and amphotericin B (0.05 μg/ml) in a humidified atmosphere containing 5% CO2. […]
Stimulation of Inositol Phosphate Production. […] The lysate was then applied to an ion exchange column (0.5 mL resin bed) and the total inositol phosphates were eluted as described previously (Berridge, M. J., et al., Biochem. J. 212:473-482 (1983)), and counted in liquid scintillation cocktail.

CC[C@H](C)[C@H](NC(=O)[C@H](CCC(=O)O)NC(=O)C(C)(C)NC(=O)[C@@H](NC(=O)C1(N)CCCC1)C(C)C)C(=O)N[C@@H](CCC(N)=O)C(=O)N[C@@H](CC(C)C)C(=O)N[C@@H](CCSC)C(=O)N[C@@H](Cc1c[nH]cn1)C(=O)N[C@@H](CCC(N)=O)C(=O)N[C@@H](CCCCNC(=N)N)C(=O)N[C@@H](C)C(=O)N[C@@H](CCCCN)C(=O)N[C@@H](Cc1c[nH]c2ccccc12)C(N)=O [[Ac5c^1,Aib^3,M]PTH(1-14), [Ac5c^1,Aib^3,Gln^10,Har^11,Ala^12,Trp^14]PTH(1-14)NH2] (H-[Ac5c]V[Aib]EIQLMHQ[hArg]AKW-NH2) was tested, and the “potency for stimulating phospholipase C relative to [Aib1,3,M]PTH(1-14)” value was 2 fold.
